Consider three compounds from patent publication US4198506A, “2-Carboxyalkyl-2,3-dihydro-6-mercapto-s-triazolo[4,3-b]-pyridazin-3-ones” (Bristol-Myers Company, priority 1979, dated 1980).

For one data set, the system named is E. coli (sensitive). In words: In vitro activity (geometric mean MIC, serial dilution). The data set is classed as cell-based. As to conditions: Escherichia coli, read-out: Geometric Mean MIC.
In a further data set the test system is Klebsiella sp. The description is as above. The data set is classed as cell-based. As to conditions: read-out: Geometric Mean MIC.
Data set [1] relates to S. aureus penicillinase+). Described as above. In kind it is cell-based. The conditions noted are these: Staphylococcus aureus, read-out: Geometric Mean MIC.
Another data set relates to Proteus (indole-). The data set is described as above. The data set is classed as cell-based. The conditions noted are these: read-out: Geometric Mean MIC.
The test system of data set [2] is Enterobacter (Cephalosporinase +). Described as above. As to conditions: 7 strains, Mueller-Hinton agar, inoculum 10^4 dilution, MIC cutoff 200 mcg./ml. In kind it is cell-based.
Data set [3] has as its system S. aureus (Methicillin-R). The data set is described as above. The data set is classed as cell-based. The conditions noted are these: Staphylococcus aureus; 15 strains; Mueller-Hinton agar, inoculum 10^4 dilution; MIC cutoff 200 mcg./ml.
The subject of another data set is S. aureus Smith. Nature of the data set: In vivo activity (Mice, sc). The conditions noted are these: several determinations listed; for ED50: Staphylococcus aureus, read-out: PD50. The text has this: (§1) |In vivo Activity of BB-[…] and Related Compounds (Mice, sc) | (PD50 (mgm./kg.)
A further data set deals with E. coli Juhl. In words: In vivo activity (Mice, sc). As to conditions: several determinations listed; for ED50: Escherichia coli, read-out: PD50.
Excerpt: as §1

Data set [4] concerns E. coli (Penicillinase +). Nature of the data set: In vitro activity (geometric mean MIC, serial dilution). The data set is classed as cell-based. The conditions noted are these: Escherichia coli; 7 strains; Mueller-Hinton agar, inoculum 10^4 dilution; MIC cutoff 200 mcg./ml.; read-out: Geometric Mean MIC.
In a further data set the test system is S. marcescens. Described as above. The data set is classed as cell-based. The conditions noted are these: Serratia marcescens; 16 strains; Mueller-Hinton agar, inoculum 10^4 dilution; MIC cutoff 200 mcg./ml.; read-out: Geometric Mean MIC.
The subject of data set [5] is Proteus (indole +, cephalosporinase +). The description is as above. In kind it is cell-based. The conditions noted are these: 5 strains; Mueller-Hinton agar, inoculum 10^4 dilution; MIC cutoff 200 mcg./ml.; read-out: Geometric Mean MIC.
Data set [6] concerns 51 gram-positive and 96 gram-negative bacteria. In words: In vitro activity against 147 test organisms (overall comparison). In kind it is cell-based. The conditions noted are these: compared with BB-S483 and BB-S469, respectively. On the procedure: The MIC's were determined by the serial dilution method using Mueller-Hinton agar against 51 gram-positive and 96 gram-negative bacteria. The 147 test organisms were classified into 16 groups according to the genera and the types of antibiotic resistance, 5 groups for gram-positive and 11 for gram-negative bacteria.

The subject of another data set is Providencia sp. Nature of the data set: In vitro activity (geometric mean MIC, serial dilution). The data set is classed as cell-based. As to conditions: 5 strains, Mueller-Hinton agar, inoculum 10^4 dilution, MIC cutoff 200 mcg./ml., read-out: Geometric Mean MIC.
The next data set concerns D. pneumoniae. The data set is described as above. The data set is classed as cell-based. The conditions noted are these: Streptococcus pneumoniae; 9 strains; Mueller-Hinton agar, inoculum 10^4 dilution; MIC cutoff 200 mcg./ml.
A further data set has as its system S. pyogenes. The description is as above. In kind it is cell-based. The conditions noted are these: Streptococcus pyogenes; 10 strains; Mueller-Hinton agar, inoculum 10^4 dilution; MIC cutoff 200 mcg./ml.
The test system of data set [7] is Miscellaneous (Salmonella, Shigella, Citrobacter). In words: microbe, parasite or virus in culture. The conditions noted are these: read-out: Geometric Mean MIC.
In another data set the test system is Enterobacter (sensitive). In words: In vitro activity (geometric mean MIC, serial dilution). In kind it is cell-based. The conditions noted are these: 3 strains, Mueller-Hinton agar, inoculum 10^4 dilution, MIC cutoff 200 mcg./ml., read-out: Geometric Mean MIC.
Another data set has as its system S. aureus (sensitive). Described as above. The data set is classed as cell-based. The conditions noted are these: Staphylococcus aureus, read-out: Geometric Mean MIC.
For the next data set, the system named is Proteus (indole +). The description is as above. In kind it is cell-based. As to conditions: read-out: Geometric Mean MIC.
Another data set relates to rabbits. Nature of the data set: Preliminary nephrotoxicity study. The data set is classed as in vivo. The conditions noted are these: two rabbits, 100 mg./kg. intravenously. On the procedure:
A preliminary nephrotoxicity study was carried out by administration of the test compound to a group of two rabbits at 100 mg./kg. intravenously.

[8] abbreviates: 13 strains, Mueller-Hinton agar, inoculum 10^4 dilution, MIC cutoff 200 mcg./ml.
[9] abbreviates: 12 strains, Mueller-Hinton agar, inoculum 10^4 dilution, MIC cutoff 200 mcg./ml.

Converted amounts (≈) assume the structure as drawn. “And” between values parts separate entries of the source, which are not always exact repeats. Equal values may be shown once. Read-outs that look alike come from different tables or passages of the source.

As for `CNCc1ccsc1CC(=O)N[C@@H]1C(=O)N2C(C(=O)O)=C(CSc3ccc4nn(CC(=O)O)c(=O)n4n3)CS[C@H]12` [BB-S472, 7-(3-Methylaminomethyl-2-thienylacetamido)-3-(2-carboxymethyl-2,3-dihydro-s-triazolo[4,3-b]pyridazin-3-on-6-ylthiomethyl)-3-cephem-4-carboxylic Acid], the MIC came to 0.2 µg/mL (≈ 0.33 µM) with E. coli (sensitive) (setting [8]); 0.8 µg/mL (≈ 1.32 µM) with Klebsiella sp. (setting [9]); 0.9 µg/mL (≈ 1.49 µM) in data set [1]; 0.3 µg/mL (≈ 0.495 µM) in the data set on Proteus (indole-); 3.2 µg/mL (≈ 5.28 µM) in data set [2]; 58 µg/mL (≈ 95.8 µM) in [3]. Moreover, the MIC in data set [4] was 15 µg/mL (≈ 24.8 µM); in the data set on S. marcescens, 200 µg/mL (≈ 330 µM); in data set [5] it was 8.3 µg/mL (≈ 13.7 µM); in the data set on Providencia sp., 4.8 µg/mL (≈ 7.92 µM); against D. pneumoniae, 0.05 µg/mL (≈ 0.0826 µM); with S. pyogenes, 0.05 µg/mL (≈ 0.0826 µM). In addition, the MIC in data set [7] worked out at 0.4 µg/mL (≈ 0.66 µM); in the data set with Enterobacter (sensitive), 1.3 µg/mL (≈ 2.15 µM); in the data set with S. aureus (sensitive), 0.4 µg/mL (≈ 0.66 µM); in the data set on Proteus (indole +), 0.3 µg/mL (≈ 0.495 µM). Further, the ED50 in the data set with S. aureus Smith was found to be 0.12 mg/kg; in the data set on E. coli Juhl it was 0.19 mg/kg. For the same compound, the “overall in vitro activity vs. non-N-methylated analogs” value in [6] is recorded as “better overall activity than their non-N-methylated analogs”.

Take `NCc1ccccc1CC(=O)N[C@@H]1C(=O)N2C(C(=O)O)=C(CSc3ccc4nn(CC(=O)O)c(=O)n4n3)CS[C@H]12` [BB-S469]: the MIC in the data set on E. coli (sensitive) is 0.3 µg/mL (≈ 0.512 µM); in the data set on Klebsiella sp. it was 0.9 µg/mL (≈ 1.54 µM); in [1], 1.2 µg/mL (≈ 2.05 µM); in the data set on Proteus (indole-) (6 strains, Mueller-Hinton agar, inoculum 10^4 dilution, MIC cutoff 200 mcg./ml.), 0.6 µg/mL (≈ 1.02 µM); in data set [2], 4.7 µg/mL (≈ 8.03 µM); in data set [3], 30 µg/mL (≈ 51.2 µM). Further, the MIC in data set [4] amounted to 11 µg/mL (≈ 18.8 µM); in the data set with S. marcescens it was 130 µg/mL (≈ 222 µM); in [5] it was 11 µg/mL (≈ 18.8 µM); in the data set on Providencia sp. it was 4.2 µg/mL (≈ 7.17 µM); in the data set with D. pneumoniae it was 0.03 µg/mL (≈ 0.0512 µM); against S. pyogenes, 0.05 µg/mL (≈ 0.0854 µM). The MIC worked out at 0.7 µg/mL (≈ 1.2 µM) in [7], 1 µg/mL (≈ 1.71 µM) in the data set on Enterobacter (sensitive), 0.4 µg/mL (≈ 0.683 µM) in the data set with S. aureus (sensitive) and 0.5 µg/mL (≈ 0.854 µM) with Proteus (indole +). Further, the ED50 with S. aureus Smith and in the data set with E. coli Juhl was 0.19 mg/kg throughout. Also, the PD50 with S. aureus Smith is 0.16 mgm./kg. and 0.29 mgm./kg. and 0.2 mgm./kg; in the data set with E. coli Juhl it was 0.24 mgm./kg. and 0.15 mgm./kg. For the same compound, the nephrotoxic potential entry with rabbits is “little nephrotoxic potential”.

`NCc1ccsc1CC(=O)N[C@@H]1C(=O)N2C(C(=O)O)=C(CSc3ccc4nn(CC(=O)O)c(=O)n4n3)CS[C@H]12` [BB-S483, 7-(3-Aminomethyl-2-thienylacetamido)-3-(2-carboxymethyl-2,3-dihydro-s-triazolo[4,3-b]pyridazin-3-on-6-ylthiomethyl)-3-cephem-4-carboxylic Acid]: the MIC with E. coli (sensitive) was found to be 0.3 µg/mL (≈ 0.507 µM); in the data set on Klebsiella sp. (setting [9]), 1.1 µg/mL (≈ 1.86 µM); in data set [1] (setting [8]), 1.1 µg/mL (≈ 1.86 µM); with Proteus (indole-) it was 0.7 µg/mL (≈ 1.18 µM); in [2], 5.2 µg/mL (≈ 8.79 µM); in [3] it was 48 µg/mL (≈ 81.1 µM). Moreover, the MIC in [4] was 21 µg/mL (≈ 35.5 µM); with S. marcescens it was 81 µg/mL (≈ 137 µM); in data set [5], 17 µg/mL (≈ 28.7 µM); with Providencia sp. it was 2.1 µg/mL (≈ 3.55 µM); against D. pneumoniae it was 0.04 µg/mL (≈ 0.0676 µM); against S. pyogenes, 0.08 µg/mL (≈ 0.135 µM). The MIC came out at 0.9 µg/mL (≈ 1.52 µM) in data set [7], 1.3 µg/mL (≈ 2.2 µM) in the data set on Enterobacter (sensitive), 0.3 µg/mL (≈ 0.507 µM) in the data set on S. aureus (sensitive) and 0.4 µg/mL (≈ 0.676 µM) in the data set with Proteus (indole +). Moreover, the figures for the ED50 in the data set with S. aureus Smith and with E. coli Juhl were 0.34 mg/kg and 0.15 mg/kg, respectively.
